Experimental data from paper PMC9217908, “Screening of commonly prescribed drugs for effects on the CAT1-mediated transport of L-arginine and arginine derivatives” (Amino Acids, 2022).
Where two headings read alike, the source gives them in different places.

Experiments:
[1] = molecular target: T1, CAT1 (cationic amino acid transporter 1, CAT1/SLC7A1) (Homo sapiens, UniProt P30825); assay: inhibition of [3H]-L-arginine uptake in HEK-CAT1 cells, Lineweaver-Burk; type: cell-based; conditions: substrate L-arginine; competitive
T1 construct: full-length human transporter stably transfected in HEK cells (HEK-CAT1); net uptake against HEK-VC vector control cells
T1 sequence (P30825 whole entry): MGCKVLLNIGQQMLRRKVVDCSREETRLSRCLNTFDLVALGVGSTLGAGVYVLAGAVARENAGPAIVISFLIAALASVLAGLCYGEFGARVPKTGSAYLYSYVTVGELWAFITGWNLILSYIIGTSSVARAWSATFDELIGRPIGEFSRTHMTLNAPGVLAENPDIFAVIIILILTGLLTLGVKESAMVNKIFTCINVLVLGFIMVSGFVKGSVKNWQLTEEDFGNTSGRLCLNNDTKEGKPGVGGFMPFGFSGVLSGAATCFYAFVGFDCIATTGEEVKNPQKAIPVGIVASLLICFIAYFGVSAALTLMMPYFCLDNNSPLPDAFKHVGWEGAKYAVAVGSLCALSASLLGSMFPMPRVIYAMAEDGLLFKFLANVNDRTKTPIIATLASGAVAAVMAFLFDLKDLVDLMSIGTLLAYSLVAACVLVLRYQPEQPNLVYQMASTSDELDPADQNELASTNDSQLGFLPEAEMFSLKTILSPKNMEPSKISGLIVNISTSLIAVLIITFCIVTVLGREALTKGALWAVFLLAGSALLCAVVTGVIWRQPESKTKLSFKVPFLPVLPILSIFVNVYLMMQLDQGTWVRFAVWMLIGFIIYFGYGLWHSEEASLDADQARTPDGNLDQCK

[2] = molecular target: T1, CAT1 (cationic amino acid transporter 1, CAT1/SLC7A1); assay: cell-based; design: species or system HEK-CAT1 (HEK293 stably transfected); Inhibition of net CAT1-mediated [3H]-L-arginine (100 uM) uptake, 5 min, scintillation counting, vector control subtracted; conditions: HEK293, L-arginine 100 uM as substrate; for inhibition at 20 µM: read-out: % Inhibition of L-arginine uptake at 20 µM; for inhibition at 200 µM: read-out: % Inhibition of L-arginine uptake at 200 µM
Summary of the method: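 HEK-CAT1 and vector-control HEK-VC cells took up [3H]-L-arginine (100 μM) for 5 min, with or without drug at 20 or 200 µM; [3H]-L-homoarginine or [3H]-ADMA uptake ran 2.5 min. Net uptake is CAT1 minus VC cells, and inhibition (%) = 100 − (V/V0 × 100). Negative values mean stimulated uptake.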

[3] = molecular target: T1, CAT1 (cationic amino acid transporter 1, CAT1/SLC7A1); assay: cell-based; design: species or system HEK-CAT1 (HEK293 stably transfected); Inhibition of net CAT1-mediated [3H]-L-homoarginine (1 uM) uptake, 2.5 min, scintillation counting, vector control subtracted; conditions: HEK293, L-homoarginine 1 uM as substrate; for inhibition at 200 µM: read-out: % Inhibition of L-homoarginine uptake at 200 µM; for inhibition at 20 µM: read-out: % Inhibition of L-homoarginine uptake at 20 µM
Summary of the method: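 HEK-CAT1 cells with HEK-VC vector controls; [3H]-L-homoarginine (1 μM) uptake over 2.5 min with or without test compound at 20 µM or 200 µM. Net CAT1 uptake (CAT1 minus VC) gives inhibition (%) = 100 – (V/V0 × 100). Negative values mean stimulated uptake; n = 6–9 from at least two independent experiments.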

[4] = molecular target: T1, CAT1 (cationic amino acid transporter 1, CAT1/SLC7A1); assay: cell-based; design: species or system HEK-CAT1 (HEK293 stably transfected); Inhibition of net CAT1-mediated [3H]-ADMA (1 uM) uptake, 2.5 min, scintillation counting, vector control subtracted; conditions: HEK293, ADMA 1 uM as substrate; for inhibition at 20 µM: read-out: % Inhibition of ADMA uptake at 20 µM; for inhibition at 200 µM: read-out: % Inhibition of ADMA uptake at 200 µM
Summary of the method: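 HEK cells expressing CAT1 and vector-control cells took up [^3H]-L-arginine for 5 min, or [^3H]-L-homoarginine or [^3H]-ADMA (1 μM) for 2.5 min, with or without drug at 20 or 200 µM. Net CAT1 uptake was CAT1 cells minus control cells, and inhibition (%) = 100 − V/V0×100. Negative values mean stimulation; n = 6–9.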

[5] = molecular target: T1, CAT1 (cationic amino acid transporter 1, CAT1/SLC7A1); assay: inhibition of [3H]-L-homoarginine uptake in HEK-CAT1 cells; type: cell-based; conditions: read-out: % inhibition at 20 μM
[6] = molecular target: T1, CAT1 (cationic amino acid transporter 1, CAT1/SLC7A1); assay: inhibition of [3H]-L-arginine uptake in HEK-CAT1 cells; type: cell-based
Source text: inhibition of [3H]-L-arginine uptake in HEK-CAT1 cells on CAT1 (cationic amino acid transporter 1, CAT1/SLC7A1) | verapamil inhibited CAT1-mediated uptake of L-arginine, L-homoarginine, and ADMA with IC50 values

SMILES	inhibition at 20 µM [2]	inhibition at 200 µM [2]	inhibition at 200 µM [3]	inhibition at 20 µM [4]	inhibition at 200 µM [4]	IC50 [6]	inhibition at 20 µM [3]	inhibition of [3H]-L-arginine uptake in HEK-CAT1 cells, Lineweaver-Burk [1]	inhibition at 20 µM [5]
N=C(N)NCCCC[C@H](N)C(=O)O [L-homoarginine]								competitive inhibition pattern for L-homoarginine and ADMA	
O=C(OC1C[C@H]2CC[C@@H](C1)[N+]21CCCC1)C(O)(c1ccccc1)c1ccccc1 (some centres unmarked) [trospium]									28.6%
CC(=O)N[C@@H](CS)C(=O)O [Acetylcysteine]	-6.6 ± 3.7%	4.6 ± 3.3%	7.5 ± 1.3%	3.2 ± 3.2%	-6.1 ± 4.3%		-9 ± 1.5%		
CC[C@H]1OC(=O)[C@H](C)[C@@H](O[C@H]2C[C@@](C)(OC)[C@@H](O)[C@H](C)O2)[C@H](C)[C@@H](O[C@@H]2O[C@H](C)C[C@H](N(C)C)[C@H]2O)[C@](C)(O)C[C@@H](C)CN(C)[C@H](C)[C@@H](O)[C@]1(C)O [Azithromycin]	7 ± 7.2%	16.7 ± 5.2%	26.8 ± 2.3%	2.8 ± 3.4%	12.9 ± 3.7%		20.8 ± 3.3%		
CC12CC3CC(C)(C1)CC(N)(C3)C2 [Memantine]	-3.2 ± 3.9%	-21.7 ± 5.1%	-16.6 ± 0.8%	14.8 ± 2.6%	-9.6 ± 1.8%		-3.9 ± 3.4%		
CCOC(=O)[C@H](CCc1ccccc1)N[C@H]1CCc2ccccc2N(CC(=O)O)C1=O [Benazepril]	1.1 ± 4.5%	2.7 ± 6%	5.8 ± 2.4%	28.7 ± 4.6%	3.1 ± 3.8%		1.1 ± 4.5%		
NS(=O)(=O)c1cc2c(cc1Cl)NCNS2(=O)=O [Hydrochlorothiazide]	6 ± 3.9%	20.7 ± 14.1%	7.9 ± 1.2%	5.5 ± 2.2%	9.9 ± 3.5%		8.5 ± 4.8%		
CNCCCN1c2ccccc2CCc2ccccc21 [Desipramine]	-10.8 ± 2.3%	8.3 ± 6.7%	11.6 ± 7.2%	-0.7 ± 3.1%	-37.6 ± 11.8%		-10.3 ± 2.1%		
NCCCC[C@H](N[C@@H](CCc1ccccc1)C(=O)O)C(=O)N1CCC[C@H]1C(=O)O [Lisinopril]	4.6 ± 3.8%	-12.6 ± 5%	-11.4 ± 3.8%	1.6 ± 1.9%	15.7 ± 0.8%		6.4 ± 3.1%		
CC(=O)Nc1nnc(S(N)(=O)=O)s1 [Acetazolamide]	-12.8 ± 12.9%	8.9 ± 3.9%	8.8 ± 2.1%	-1.5 ± 0.9%	9.7 ± 1.9%		-10.9 ± 11.9%		
CN(C)C(=N)NCCC[C@H](N)C(=O)O [ADMA]								competitive inhibition pattern for L-homoarginine and ADMA	
C[C@]12CC[C@@H]3c4ccc(O)cc4CC[C@H]3[C@@H]1CC[C@@H]2O [Beta estradiol]	0.3 ± 4.5%	-19.1 ± 7.2%	-13.7 ± 11.3%	-9.8 ± 7.2%	-32.9 ± 6.4%		-0.1 ± 4.2%		
O=C(O)c1cc(-c2ccc(F)cc2F)ccc1O [Diflunisal]	26.6 ± 0.9%	-20.5 ± 3.3%	-20 ± 0.5%	-42.4 ± 4.5%	10 ± 2.1%		27.9 ± 1%		
CCc1oc2ccccc2c1C(=O)c1cc(Br)c(O)c(Br)c1 [Benzbromarone]	-12.4 ± 6.1%	-31.3 ± 4.9%	-23.2 ± 1.6%	-6.9 ± 4.6%	-13.2 ± 5.9%		-10.8 ± 5.3%		

Further lines, with some results ahead:

inhibition at 20 µM [2]	inhibition at 200 µM [2]	inhibition at 200 µM [3]	inhibition at 20 µM [4]	inhibition at 200 µM [4]	IC50 [6]	inhibition at 20 µM [3]	SMILES	inhibition of [3H]-L-arginine uptake in HEK-CAT1 cells, Lineweaver-Burk [1]	inhibition at 20 µM [5]
9.8 ± 4.3%	9.9 ± 3.1%	9.7 ± 6.1%	36.9 ± 4.1%	5.1 ± 2.3%			COc1cc2nc(N3CCN(C(=O)c4ccco4)CC3)nc(N)c2cc1OC [prazosin]		38.2%
29.3 ± 1.1%	27.5 ± 3.7%		24.1 ± 2.3%	44.2 ± 4.4%	85.3 µM		COc1ccc(CCN(C)CCCC(C#N)(c2ccc(OC)c(OC)c2)C(C)C)cc1OC (centres unmarked) [verapamil]		
-20.7 ± 14.1%	-23.1 ± 1.4%	-18.8 ± 1.3%	-8 ± 4.3%	-8.4 ± 3.1%		-20.4 ± 13.7%	CN(C)C(=N)NC(=N)N [Metformin]		
12.5 ± 4.1%	-21.4 ± 1.3%	-16.5 ± 2.4%	-3.3 ± 6.9%	13.4 ± 4.7%		-11.1 ± 5.8%	C[C@]12C=CC(=O)C=C1CC[C@@H]1[C@@H]2[C@@H](O)C[C@@]2(C)[C@H]1CC[C@]2(O)C(=O)CO [Prednisolone]		
-1.5 ± 7.1%	26.1 ± 8.1%	15.2 ± 4.5%	3.2 ± 9.5%	30.4 ± 0.8%		3.4 ± 8.7%	CCOC(=O)C1=C(C)NC(C)=C(C(=O)OC)C1c1cccc([N+](=O)[O-])c1 (centres unmarked) [Nitrendipine]		
-1.3 ± 7.1%	14.4 ± 6%	14 ± 0.9%	4.2 ± 2%	-9.2 ± 1.2%		4.3 ± 2%	CC(CN1c2ccccc2Sc2ccccc21)N(C)C (centres unmarked) [Promethazine]		
22.3 ± 1.8%	29.2 ± 2.7%	29.5 ± 2.7%	-13.4 ± 3.7%	-1 ± 4.5%		-16.8 ± 3.4%	OCCN1CCN(CCCN2c3ccccc3C=Cc3ccccc32)CC1 [Opipramol]		
